Results on 32 compounds are retold here after patent US6413947B1, “Anilide derivative, production and use thereof” (Takeda Chemical Industries, Ltd., priority 1997, dated 2002).

Where a name gives a salt, the structure may show the parent alone.

By melting point is commonly meant the temperature of the solid-liquid transition. In turn, `CN(Cc1ccc(NC(=O)C2=Cc3cc(-c4ccc(N5CCOCC5)cc4)ccc3SCC2)cc1)C1CCOCC1` [Compound 285, N-[4-[N-methyl-N-(tetrahydropyran-4-yl)aminomethyl]phenyl]-7-(4-morpholinophenyl)-2,3-dihydro-1-benzothiepine-4-carboxamide] came in with a melting point of 255 to 259 °C.

In the case of `COc1ccc(N2CCN(Cc3ccc(NC(=O)/C=C/c4cccc(-c5ccc(C)cc5)c4)cc3)CC2)cc1` [Compound 62, (E)-N-[4-[1—(4-methoxy-phenyl)-4-piperazinylmethyl]phenyl]-3—(4-methylphenyl)cinnamamide], the melting point lay within 207 to 208 °C.

The compound `CN(Cc1ccc(NC(=O)C2=Cc3cc(-c4ccsc4)ccc3OCC2)cc1)C1CCOCC1` [Compound 291, N-[4-[N-methyl-N-(tetrahydropyran-4-yl)aminomethyl]phenyl]-7-(3-thienyl)-2,3-dihydro-1-benzoxepine-4-carboxamide] came in with a melting point of 194 to 195 °C.

With `Cc1ccc(-c2ccc3c(c2)C=C(C(=O)Nc2ccc(C[N+]4(C)CCCCC4)cc2)CCC3)cc1` (as salt: iodide) [Compound 92, 1—(N-(2—(4-methylphenyl)-6,7-dihydro-5H-benzocycloheptene-8-carbonyl)-4-aminobenzyl)-1-methylpiperidinium iodide], the melting point was 220 to 221 °C (dec.).

As to `Cc1ccc(-c2ccc3c(c2)C=C(C(=O)Nc2ccc(CN(C)C4CCOCC4)cc2)CCO3)s1` [Compound 290, N-[4-[N-methyl-N-(tetrahydropyran-4-yl)amino-methyl]phenyl]-7-(5-methyl-2-thienyl)-2,3-dihydro-1-benzoxepine-4-carboxamide], the melting point is 129 to 130 °C.

As to `Cc1ccc(-c2ccc3c(c2)C=C(C(=O)Nc2ccc(Cc4cccc[n+]4[O-])cc2)CCO3)cc1` [Compound 162, N-[4—(1-oxidopyridin-2-ylmethyl)phenyl]-7—(4-methylphenyl)-2,3-dihydro-1-benzoxepine-4-carboxamide], the melting point was 188 to 190 °C.

On to `Cc1ccc(-c2ccc3c(c2)C=C(C(=O)Nc2ccc(CN4CCC(Cc5ccccc5)CC4)cc2)CC3)cc1` [Compound 35, N-[4—(4-benzyl-piperidinomethyl)phenyl]-7—(4-methylphenyl)-3,4-dihydronaphthalene-2-carboxamide], for which the melting point was in the range of 199 to 201 °C.

Turning to `O=C(C=Cc1cccc(-c2ccccc2)c1)Nc1ccc(CN2CCCCC2)cc1` [Compound 81, 1—(4—(3-phenylcinnamoylamino)-benzyl)piperidine], the melting point was 159 to 160 °C.

With `CCP(=O)(CC)Cc1ccc(NC(=O)/C=C/c2cccc(-c3ccc(C)cc3)c2)cc1` [Compound 187, (E)-N-(4-diethylphosphorylmethylphenyl)-3—(4-methylphenyl)cinnamamide], the melting point was in the range of 197 to 198 °C.

Take `Cc1ccc(-c2cccc(/C=C/C(=O)Nc3ccc(CN(C)CC#N)cc3)c2)cc1` [Compound 64, (E)-N-[4-[N-(cyanomethyl)-N-methylaminomethyl]phenyl]-3—(4-methylphenyl)cinnamamide]: the melting point was 163 to 165 °C.

For the compound `CN(C)Cc1ccc(NC(=O)C2=Cc3cc(-c4ccccc4)ccc3CC2)cc1` [Compound 6, N-[4—(dimethylaminomethyl)-phenyl]-7-phenyl-3,4-dihydro-naphthalene-2-carboxamide], the melting point is 182 to 184 °C.

In turn, `Cc1ccc(-c2ccc3c(c2)C=C(C(=O)Nc2ccc(CSC4CCCCC4)cc2)CCO3)cc1` [Compound 53, N-(4—(cyclohexylthiomethyl)-phenyl)-7—(4-methylphenyl)-2,3-dihydro-1-benzoxepine-4-carboxamide] yielded a melting point of 161 to 162 °C.

Turning to `CCOCCCN(C)Cc1ccc(NC(=O)C2=Cc3cc(-c4ccc(OCC)cc4)ccc3N(C)CC2)cc1` [Compound 319, N-(4-((N-(3-ethoxypropyl)-N-methylamino)methyl)phenyl)-7-(4-ethoxyphenyl)-1-methyl-2,3-dihydro-1-benzazepine-4-carboxamide], the melting point lay in the range of 129 to 131 °C.

Take `CCSc1ccc(-c2ccc3c(c2)C=C(C(=O)Nc2ccc(CN(C)C4CCOCC4)cc2)CCN3C)cc1` [Compound 320, 7-(4-ethylthiophenyl)-1-methyl-N-[4-[[N-methyl-N-(tetrahydro-2H-pyran-4-yl)amino]methyl]phenyl]-2,3-dihydro-1-benzazepine-4-carboxamide]: the melting point lay in the range of 139 to 141 °C.

With `Cc1ccc(-c2cccc(/C=C/C(=O)Nc3ccc(C[N+]4(C)CCCCC4)cc3)c2)cc1` (as salt: iodide) [Compound 72, (E)-1-methyl-1-[4—(3—(4-methylphenyl)cinnamamido)benzyl]-piperidinium iodide], the melting point fell in the range of 176 to 178 °C.

Consider `Cc1ccc(-c2ccc3c(c2)C=C(C(=O)Nc2ccc(C[S+]([O-])c4ccccc4)cc2)CCO3)cc1` (centres unmarked) [Compound 108, 7—(4-methylphenyl)-N-(4—(phenylsulfinylmethyl)phenyl)-2,3-dihydro-1-benzoxepine-4-carboxamide], for which the melting point lay within 127 to 128 °C.

`Cc1ccc(-c2ccc3c(c2)C=C(C(=O)Nc2ccc(C[N+](C)(C)CCCO)cc2)CCO3)cc1.[I-]` [Compound 240, dimethyl-3-hydroxypropyl-(N-(7-(4-methylphenyl)-2,3-dihydro-1-benzoxepin-4-carbonyl)-4-aminobenzyl)ammonium iodide] came in with a melting point of 216 to 219 °C.

Compound `Cc1ccc(-c2ccc3c(c2)C=C(C(=O)Nc2ccc(CN4CCCCC4)cc2)CC(C)O3)cc1` (centres unmarked) [Compound 105, 7—(4-methylphenyl)-2-methyl-N-(4—(piperidinomethyl)phenyl)-2,3-dihydro-1-benzoxepine-4-carboxamide] displayed a melting point of 175 to 176 °C.

On to `Cc1ccc(-c2ccc3c(c2)C=C(C(=O)Nc2ccc(CP4(=O)CCCCC4)cc2)CCC3)cc1` [Compound 252, 2-(4-methylphenyl)-N-(4-((1-oxophosphorinane-1-yl)methyl)phenyl)-6,7-dihydro-5H-benzocycloheptene-8-carboxamide], for which the melting point is 282 to 283 °C (dec.).

Turning to `Cc1ccc(-c2cccc(/C=C/C(=O)Nc3ccc(CN4CCCCC4CCO)cc3)c2)cc1` (centres unmarked) [Compound 69, (E)-N-[4-[2—(2-hydroxyethyl)piperidinomethyl]phenyl]-3—(4-methylphenyl)cinnamamide], the melting point lay within 142 to 143 °C.

For the compound `CN1CCN(c2ccc(-c3ccc4c(c3)C=C(C(=O)Nc3ccc(CN(C)C5CCOCC5)cc3)CCO4)cc2)CC1` [Compound 124, 7—(4—(4-methylpiperazin-1-yl)phenyl)-N-(4—((N-tetrahydropyran-4-yl-N-methylamino)methyl)phenyl)-2,3-dihydro-1-benzoxepine-4-carboxamide], the melting point was 220 to 221 °C.

`Cc1ccc(-c2cccc(/C=C/C(=O)Nc3ccc(C(O)c4cccc[n+]4[O-])cc3)c2)cc1` (centres unmarked) [Compound 80, (E)-N-[4-[hydroxy(1-oxido-2-pyridyl)methyl]-phenyl]-3—(4-methylphenyl)cinnamamide] came in with a melting point of 165 to 167 °C.

`COc1cccnc1C(O)c1ccc(NC(=O)C2=Cc3cc(-c4ccc(C)cc4)ccc3OCC2)cc1` (centres unmarked) [Compound 169, N-[4-[hydroxy(3-methoxy-pyridin-2-yl)methyl]phenyl]-7—(4-methylphenyl)-2,3-dihydro-1-benzoxepine-4-carboxamide] gave a melting point of 232 to 233 °C.

Consider `Cc1ccc(-c2ccc3c(c2)C=C(C(=O)Nc2ccc(CSCc4ccccc4)cc2)CCO3)cc1` [Compound 86, N-(4—(benzylthiomethyl)phenyl)-7—(4-methylphenyl)-2,3-dihydro-1-benzoxepine-4-carboxamide], for which the melting point was 145 to 146 °C.

On to `CN(Cc1ccc(NC(=O)C2=Cc3cc(-c4ccc(S(C)(=O)=O)cc4)ccc3OCC2)cc1)C1CCOCC1` [Compound 273, 7-(4-methylsulfonylphenyl)-N-[4-[N-methyl-N-(tetra-hydropyran-4-yl)aminomethyl]phenyl]-2,3-dihydro-1-benzoxepine-4-carboxamide], for which the melting point is 233 to 235 °C.

Regarding `CN(C)c1ccc(-c2ccc3c(c2)C=C(C(=O)Nc2ccc(CN(C)C4CCOCC4)cc2)CCO3)cc1` [Compound 149, 7—(4-dimethylaminophenyl)-N-(4—((N-tetrahydropyran-4-yl-N-methylamino)methyl)phenyl)-2,3-dihydro-1-benzoxepine-4-carboxamide], the melting point was 208 to 209 °C (dec.).

In turn, `CN1CCC(C(=O)Nc2ccc(CN(C)C3CCOCC3)cc2)=Cc2cc(-c3ccc(OC(F)(F)F)cc3)ccc21` [Compound 315, 1-methyl-N-[4-[[N-methyl-N-(tetrahydro-2H-pyran-4-yl)amino]methyl]phenyl]-7-(4-trifluoromethoxyphenyl)-2,3-dihydro-1-benzazepine-4-carboxamide] returned a melting point of 182 to 183 °C.

`CCCP(=O)(CCC)Cc1ccc(NC(=O)/C=C/c2cccc(-c3ccc(C)cc3)c2)cc1` [Compound 194, (E)-N-(4-dipropylphosphorylmethylphenyl)-3—(4-methylphenyl)cinnamamide] returned a melting point of 225 to 227 °C.

With `CN(Cc1ccc(NC(=O)C2=Cc3cc(-c4ccc(C(C)(C)C)cc4)ccc3OCC2)cc1)C1CCOCC1` [Compound 179, N-[4-[N-methyl-N-(tetrahydropyran-4-yl)aminomethyl]phenyl]-7—(4-tert-butylphenyl)-2,3-dihydro-1-benzoxepine-4-carboxamide], the melting point lay in the range of 193 to 194 °C.

For `COc1cc(CN2CCN(Cc3ccc(NC(=O)C4=Cc5cc(-c6ccc(C)cc6)ccc5CC4)cc3)CC2)cc(OC)c1OC` [Compound 45, N-[4-[1—(3,4,5-trimethoxybenzyl)-4-piperazinylmethyl]-phenyl]-7—(4-methylphenyl)-3,4-dihydronaphthalene-2-carboxamide], the melting point lay in the range of 143 to 144 °C.

In the case of `Cc1ccc(-c2ccc3c(c2)C=C(C(=O)Nc2ccc(CN4CCSCC4)cc2)CC3)cc1` [Compound 50, 7—(4-methylphenyl)-N-[4—(thiomorpholinomethyl)phenyl]-3,4-dihydro-naphthalene-2-carboxamide], the melting point lay in the range of 178 to 180 °C.

Turning to `O=C(Nc1ccc(CN2CCOCC2)cc1)C1=Cc2cc(-c3ccccc3)ccc2CC1` [Compound 8, N-[4—(morpholinomethyl)-phenyl]-7-phenyl-3,4-dihydronaphthalene-2-carboxamide], the melting point lay within 186 to 187 °C.
